# Experimental data: patent EP0017102A1, “Composition containing a phenyl benzoic acid compound and acetaminophen combination for the treatment of pain and inflammation and process for preparing the same” (Merck & Co., Inc., priority 1979, dated 1980)
# Values joined by “and” are separate entries in the source; they are usually repeats but may differ in a detail not shown here. Equal values may be shown once.
# Legend:
# in vivo = assay type: in vivo, mice; conditions: mouse, in vivo, po
# Description: (§1) Measurements of the relative safety of the components and of the combination were carried out using acute oral toxicity studies in female mice. Randomly selected female albino mice (Carworth CF-1) weighing from 18 to 24 grams, and 6 to 7 weeks old, were used. The LD50 value for each drug was estimated from acute oral dose-response curves previously established. The following dose regimen was utilized:
# (§2) The preparations were administered by gastric intubation using a metal catheter attached to a springe. The various doses were administered randomly with 20 mice per group. Food was withheld one to two hours before and three hours following drug treatment. Water was available at all times. […] Body weights were taken pretest and on days 7 and 14.
# [1] = tested on: female albino mice (Carworth CF-1); assay: in vivo; assay type: in vivo; conditions: Group V: Acetaminophen 1500 mg./kg. (100 %LD50) alone; oral; 20 tested; 14 days
# Description: as §1, §2
# [2] = tested on: adjuvant arthritis induced in rats; assay: adjuvant arthritis analgesic bioassay (tail pinch / foot bend squeak response); assay type: in vivo, Sprague-Dawley rats
# Text: Since analgesic tests using intact animals are not sensitive enough to detect the analgesic activity of nonsteroidal anti-inflammatory compounds, the analgesic bioassay employed utilized inflammatory sensitization procedures, specifically adjuvant arthritis. Adjuvant arthritis induced in rats, the animals used in the bioassay, resembles rheumatoid arthritis in man with respect to the manifestation of inflammation and hyperalgesia. When the affected joints of rats with adjuvant arthritis are subjected to a gentle manipulation, preferably by extending the joint, the rats respond by squeaking, which is a definite and reproducible sign of algesia. The ability of the tested compounds to suppress this squeaking response was an accurate measure of the analgesic activity of the tested compounds.
# In accordance with the adjuvant arthritis bioassay used to evaluate the analgesic activity of the combinations of compounds of the present invention, young adult Sprague-Dawley rats of either sex are rendered hyperalgesic by injection of dessicated Mycobacterium- butyricum suspended in light mineral oil (Freund's adjuvant). The mycobacteria are ground in a mortar, suspended in the oil, and sterilized in an autoclave. Each animal receives 0.5 mg of the bacteria in 0.1 ml of oil, injected subcutaneously through a 21-gauge needle into the distal third of the tail.
# The animals can subsequently be used in two ways for testing the analgesic action of drugs. The day after the injection of adjuvant, the tail is found to be sensitive to touch. Approximately 16 hours after the injection, the experimenter tests the animals for the presence of hyperalgesia. This is done by holding the animal in one hand. With the thumb and forefinger of the other hand, the observer applies gentle pressure to the tail about 2.5 cm proximal to the point where the needle has been inserted. This gentle pressure is repeated at 5-sec intervals. If the rat endures five such gentle presses without emitting more than one "squeak", analgesia is considered to be present and a score of + is assigned. Two or more squeaks earns a rating of 0, or no analgesia. Before being assigned to an experiment, animals are screened and only those with the 0 rating are used.
# The hyperalgesic animals are assigned randomly to drug treatments and one of the treatments is always the vehicle without the drug (placebo group). […] […] This entire procedure may be referred to as "tail pinch" .technique. Alternatively, an apparatus for applying pressure to the tail may be employed and the "squeak threshold" determined before and after drug.
# The adjuvant-injected animals, if left undisturbed, develop severe arthritis which becomes especially manifest in about two weeks. […] This "foot bend" technique yields drug responses essentially identical with those obtained by the "tail pinch" procedure.
# For a further description of this bioassay and its significance, reference is made to Kuzuma and Kawai, "Evaluation of Analgesic Agents in Rats with Adjuvant Arthritis", Chem. Pharm. Bull., 23 (6) 1184-1191 (1975).
# [3] = tested on: adjuvant arthritis induced in rats; conditions: compounds known to be clinically active; cited from earlier work
smiles,measurement,setting,value
"CC(=O)Nc1ccc(O)cc1 [APAP, acetaminophen]",LD50,in vivo,1500 mg/kg
same,No. Dead,[1],16
same,Number of Rats with Analgesia,"[2]; 1/2 h after administration, dose 200 mg./kg., 8 rats per dose",2
same,Percent of Rats with Analgesia APAP Alone,"[2]; 1 Hrs. after drug, APAP 25 mg./kg., 10 rats per dose",10%
same,Percent of Rats with Analgesia APAP Alone,"[2]; 1 Hrs. after drug, APAP 200 mg./kg., 8 rats per dose",25% and 37.5%
same,Percent of Rats with Analgesia APAP Alone,"[2]; 2 Hrs. after drug, APAP 50 mg./kg., 10 rats per dose",0%
same,Percent of Rats with Analgesia APAP Alone,"[2]; 3 Hrs. after drug, APAP 100 mg./kg., 8 rats per dose",0%
same,Percent of Rats with Analgesia APAP Alone,"[2]; 3 Hrs. after drug, APAP 100 mg./kg., 10 rats per dose",0%
same,Percent of Rats with Analgesia APAP Alone,"[2]; 4 Hrs. after drug, APAP 25 mg./kg., 10 rats per dose",0%
same,Percent of Rats with Analgesia APAP Alone,"[2]; 4 Hrs. after drug, APAP 50 mg./kg., 10 rats per dose",0%
same,Percent of Rats with Analgesia APAP Alone,"[2]; 4 Hrs. after drug, APAP 100 mg./kg., 8 rats per dose",0%
same,Percent of Rats with Analgesia APAP Alone,"[2]; 4 Hrs. after drug, APAP 100 mg./kg., 10 rats per dose",0%
same,Percent of Rats with Analgesia APAP Alone,"[2]; 5 Hrs. after drug, APAP 100 mg./kg., 8 rats per dose",0%
same,Percent of Rats with Analgesia APAP Alone,"[2]; 5 Hrs. after drug, APAP 200 mg./kg., 8 rats per dose",25%
same,Number of Rats with Analgesia,"[2]; 1 h after administration, dose 25 mg./kg., 10 rats per dose",1
same,Number of Rats with Analgesia,"[2]; 1 h after administration, dose 50 mg./kg., 10 rats per dose",1
same,Number of Rats with Analgesia,"[2]; 1 h after administration, dose 100 mg./kg., 10 rats per dose",3
same,Number of Rats with Analgesia,"[2]; 1 h after administration, dose 200 mg./kg., 8 rats per dose",2 and 3
same,Number of Rats with Analgesia,"[2]; 1 h after administration, dose 400 mg./kg., 8 rats per dose",6 and 4
same,Number of Rats with Analgesia,"[2]; 2 h after administration, dose 25 mg./kg., 10 rats per dose",0
same,Number of Rats with Analgesia,"[2]; 2 h after administration, dose 50 mg./kg., 10 rats per dose",0
same,Number of Rats with Analgesia,"[2]; 2 h after administration, dose 100 mg./kg., 8 rats per dose",1
same,Number of Rats with Analgesia,"[2]; 2 h after administration, dose 100 mg./kg., 10 rats per dose",2
same,Number of Rats with Analgesia,"[2]; 2 h after administration, dose 200 mg./kg., 8 rats per dose",4 and 3
same,Number of Rats with Analgesia,"[2]; 2 h after administration, dose 400 mg./kg., 8 rats per dose",7
same,Number of Rats with Analgesia,"[2]; 3 h after administration, dose 25 mg./kg., 10 rats per dose",0
same,Number of Rats with Analgesia,"[2]; 3 h after administration, dose 50 mg./kg., 10 rats per dose",0
same,Number of Rats with Analgesia,"[2]; 3 h after administration, dose 100 mg./kg., 10 rats per dose",0
same,Number of Rats with Analgesia,"[2]; 3 h after administration, dose 200 mg./kg., 8 rats per dose",4
same,Number of Rats with Analgesia,"[2]; 3 h after administration, dose 400 mg./kg., 8 rats per dose",6
same,Number of Rats with Analgesia,"[2]; 4 h after administration, dose 25 mg./kg., 10 rats per dose",0
same,Number of Rats with Analgesia,"[2]; 4 h after administration, dose 50 mg./kg., 10 rats per dose",0
same,Number of Rats with Analgesia,"[2]; 4 h after administration, dose 100 mg./kg., 8 rats per dose",0
same,Number of Rats with Analgesia,"[2]; 4 h after administration, dose 100 mg./kg., 10 rats per dose",0
same,Number of Rats with Analgesia,"[2]; 4 h after administration, dose 200 mg./kg., 8 rats per dose",4
same,Number of Rats with Analgesia,"[2]; 4 h after administration, dose 400 mg./kg., 8 rats per dose",5 and 4
same,Number of Rats with Analgesia,"[2]; 5 h after administration, dose 25 mg./kg., 10 rats per dose",0
same,Number of Rats with Analgesia,"[2]; 5 h after administration, dose 50 mg./kg., 10 rats per dose",0
same,Number of Rats with Analgesia,"[2]; 5 h after administration, dose 100 mg./kg., 8 rats per dose",0
same,Number of Rats with Analgesia,"[2]; 5 h after administration, dose 100 mg./kg., 10 rats per dose",0
same,Number of Rats with Analgesia,"[2]; 5 h after administration, dose 200 mg./kg., 8 rats per dose",2 and 1
same,Number of Rats with Analgesia,"[2]; 5 h after administration, dose 400 mg./kg., 8 rats per dose",2 and 3
same,Number of Rats with Analgesia,"[2]; 6 h after administration, dose 25 mg./kg., 10 rats per dose",0
same,Number of Rats with Analgesia,"[2]; 6 h after administration, dose 50 mg./kg., 10 rats per dose",0
same,Number of Rats with Analgesia,"[2]; 6 h after administration, dose 100 mg./kg., 8 rats per dose",0
same,Number of Rats with Analgesia,"[2]; 6 h after administration, dose 100 mg./kg., 10 rats per dose",0
same,Number of Rats with Analgesia,"[2]; 6 h after administration, dose 400 mg./kg., 8 rats per dose",1
same,Total Positives,"[2]; sum over 1/2, 1 and 2 h, dose 200 mg./kg., 8 rats per dose",7
same,Total Positives,"[2]; sum over 1 and 2 h, dose 100 mg./kg., 10 rats per dose",5
CC(=O)Oc1ccccc1C(=O)O [aspirin],results in the adjuvant arthritis analgesic bioassay,[3],"positive, dose-dependent, reproducible results"
CC(C)Cc1ccc(CC(=O)O)cc1 [ibufenac],results in the adjuvant arthritis analgesic bioassay,[3],"positive, dose-dependent, reproducible results"
COc1ccc2c(c1)c(CC(=O)O)c(C)n2C(=O)c1ccc(Cl)cc1 [indomethacin],results in the adjuvant arthritis analgesic bioassay,[3],"positive, dose-dependent, reproducible results"
